Data on 27 compounds can be found in patent US20250179078A1, “INHIBITORS OF NLRP3” (PTC THERAPEUTICS, INC., priority 2022, published 2025).

In general, IC50 refers to the concentration that inhibits the measured activity by half.

T1 sequence (Q96P20 whole entry): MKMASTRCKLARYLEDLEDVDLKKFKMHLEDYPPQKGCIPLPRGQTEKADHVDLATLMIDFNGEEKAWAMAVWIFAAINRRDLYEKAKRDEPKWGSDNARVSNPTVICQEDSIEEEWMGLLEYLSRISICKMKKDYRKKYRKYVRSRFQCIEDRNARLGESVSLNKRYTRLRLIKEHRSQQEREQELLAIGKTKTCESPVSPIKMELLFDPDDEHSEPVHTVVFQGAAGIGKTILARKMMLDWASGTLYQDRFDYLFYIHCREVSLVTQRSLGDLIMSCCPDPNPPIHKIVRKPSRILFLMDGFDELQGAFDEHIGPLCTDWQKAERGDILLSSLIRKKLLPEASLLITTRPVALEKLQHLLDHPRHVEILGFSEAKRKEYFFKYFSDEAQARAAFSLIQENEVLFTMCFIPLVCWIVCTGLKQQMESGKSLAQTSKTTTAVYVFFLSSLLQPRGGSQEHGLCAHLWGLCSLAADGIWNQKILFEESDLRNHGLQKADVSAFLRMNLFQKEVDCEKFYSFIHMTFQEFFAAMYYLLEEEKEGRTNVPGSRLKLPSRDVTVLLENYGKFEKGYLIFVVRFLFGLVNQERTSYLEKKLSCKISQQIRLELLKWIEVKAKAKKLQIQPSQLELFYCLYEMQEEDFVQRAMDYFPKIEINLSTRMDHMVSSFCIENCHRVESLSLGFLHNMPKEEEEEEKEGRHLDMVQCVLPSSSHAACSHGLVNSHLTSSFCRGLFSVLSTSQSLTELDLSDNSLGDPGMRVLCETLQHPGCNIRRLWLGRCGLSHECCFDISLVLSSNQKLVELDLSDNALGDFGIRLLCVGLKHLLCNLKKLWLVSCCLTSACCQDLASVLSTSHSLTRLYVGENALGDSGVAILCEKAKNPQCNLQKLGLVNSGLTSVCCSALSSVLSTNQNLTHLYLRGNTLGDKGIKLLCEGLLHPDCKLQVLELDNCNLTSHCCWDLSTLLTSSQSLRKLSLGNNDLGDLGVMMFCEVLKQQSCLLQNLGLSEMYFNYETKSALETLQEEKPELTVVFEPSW

The assay addresses T1, NLRP3 (Homo sapiens, UniProt Q96P20).
T1 construct: host or cells: THP-1 cells differentiated with PMA
In words: IL-1β Secretion Assay (NLRP3-dependent IL1β secretion in THP1 cells). The assay is classed as cell-based. Particulars: PMA-differentiated THP-1 cells; compounds incubated 20 h; 2.5 μM Nigericin 3 h; HTRF IL-1β readout; read-out: IC50 IL-1β Inhibition. The method, then:
Monocytic THP-1 cells (ATCC: TIB-202) were maintained in growth media consisting of RPMI 1640 medium (ThermoFisher, Cat #11875-085), 10% FBS (ThermoFisher) and 0.05 mM β-mercaptoethanol (ThermoFisher, Cat #21985-023), according to the provider's instructions. The cell concentration was adjusted to 7.5×10^5 cells/mL, and plated in complete growth media with a final concentration of 100 ng/mL phorbol 12-myristate 13-acetate (PMA, Sigma #P8139). Cells were seeded at 100 µL/well into a 96-well cell culture plate (ThermoFisher Cat #165305) and allowed to differentiate for 24 h in a cell culture incubator at 37° C. with 5% CO2. Cells were washed 1× with 100 ul PBS and replaced with fresh RPMI+5% FBS. Compounds were serial diluted in DMSO with 3 fold dilution for a total of 7 concentrations. Diluted compounds were added to the cells at a ratio of 1:200 and incubated for 20 h. The NLRP3 inflammasome was activated with the addition of 2.5 μM Nigericin (Sigma: Cat #SML1779-1 ml), for 3 h. After incubation, 15 μL of conditioned media was removed and assayed for levels of IL-1β using the HTRF IL-1β assay kit (Cisbio: Cat #62HIL1BPEH) as per the manufacturer's instructions.
Compounds, once produced and prepared according to the present invention, can be assessed in variety of assays to characterize their activities. For example, NLRP3-dependent IL1β secretion was evaluated in THP1 cells. IC50 values of IL1β inhibition were calculated from the plot of percentage of inhibition versus the inhibitor concentration by a logistics fit. TABLE I depict examples of compounds according to generic Formula I. Data which is <1 nM is listed as *****; data 1-10 nM is listed as ****; data 10-100 nM is listed as ***, data 100-300 nM is listed as **, data ≥300 nM is listed as *.
On the technique in general: Time-resolved FRET reads energy transfer from a long-lived donor to a nearby acceptor.
Take `C[C@]1(O)C[C@@H](Nc2nnc(-c3ccc(Br)cc3C(F)(F)F)c3cncn23)C1` [Compound 204, (1s,3s)-3-({1-[4-bromo-2-(trifluoromethyl)phenyl]imidazo[1,5-d][1,2,4]triazin-4-yl}amino)-1-methylcyclobutan-1-ol]: the concentration for half-maximal inhibition (IC50) was 1 to 10 nM.

`Cc1ccc(-c2nnc(N[C@H]3C[C@@](C)(O)C3)n3cncc23)c(OC(F)F)c1` [Compound 344, (1s,3s)-3-({1-[2-(difluoromethoxy)-4-methylphenyl]imidazo[1,5-d][1,2,4]triazin-4-yl}amino)-1-methylcyclobutan-1-ol]: the IC50 was 10 to 100 nM. To `Cc1ccc(-c2nnc(N[C@H]3C[C@@H](CO)C3)n3cncc23)c(OC(F)(F)F)c1` [Compound 347, [(1s,3s)-3-({1-[4-methyl-2-(trifluoromethoxy)phenyl]imidazo[1,5-d][1,2,4]triazin-4-yl}amino)cyclobutyl]methanol] belongs 10 to 100 nM; to `COc1ccc(-c2nnc(N[C@@H]3CCCC[C@H]3O)n3cccc23)c(CC(F)(F)F)c1` [Compound 138, (1R,2R)-2-({1-[4-methoxy-2-(2,2,2-trifluoroethyl)phenyl]pyrrolo[1,2-d][1,2,4]triazin-4-yl}amino)cyclohexan-1-ol], 1 to 10 nM; to `CCN1CC[C@@H](O)[C@@H](Nc2nnc(-c3ccc(C(F)(F)F)cc3C(F)(F)F)c3cc(C)cn23)C1` [Compound 134, (3S,4R)-3-({1-[2,4-bis(trifluoromethyl)phenyl]-7-methylpyrrolo[1,2-d][1,2,4]triazin-4-yl}amino)-1-ethylpiperidin-4-ol], 1 to 10 nM. To `Cc1ccc(-c2nnc(N[C@H]3C[C@@H](CO)C3)n3cncc23)c(OC(F)F)c1` [Compound 183, [(1s,3s)-3-({1-[2-(difluoromethoxy)-4-methylphenyl]imidazo[1,5-d][1,2,4]triazin-4-yl}amino)cyclobutyl]methanol] belongs 10 to 100 nM; to `CN1CCC[C@@H](Nc2nnc(-c3ccc(OC(F)F)cc3OC(F)(F)F)c3cccn23)C1` [Compound 44, 1-[4-(difluoromethoxy)-2-(trifluoromethoxy)phenyl]-N-[(3R)-1-methylpiperidin-3-yl]pyrrolo[1,2-d][1,2,4]triazin-4-amine], below 1 nM. With `CN1CCC[C@@H](Nc2nnc(-c3ccc(C(F)(F)F)cc3C(F)(F)F)c3cncn23)C1` [Compound 217, 1-[2,4-bis(trifluoromethyl)phenyl]-N-[(3R)-1-methylpiperidin-3-yl]imidazo[1,5-d][1,2,4]triazin-4-amine], the IC50 is below 1 nM. Turning to `COc1ccc(-c2nnc(N[C@@H]3C[C@@H](F)CN(C)C3)n3cncc23)c(OC(F)F)c1` [Compound 224, 1-[2-(difluoromethoxy)-4-methoxyphenyl]-N-[(3R,5R)-5-fluoro-1-methylpiperidin-3-yl]imidazo[1,5-d][1,2,4]triazin-4-amine], the half-inhibitory concentration (IC50) is 1 to 10 nM. In the case of `Cc1ncn2c(N[C@@H]3CCCC[C@H]3O)nnc(-c3ccc(C(F)(F)F)cc3CC(F)(F)F)c12` [Compound 280, (1R,2R)-2-({8-methyl-1-[2-(2,2,2-trifluoroethyl)-4-(trifluoromethyl)phenyl]imidazo[1,5-d][1,2,4]triazin-4-yl}amino)cyclohexan-1-ol], the IC50 is 1 to 10 nM. To `Cc1ccc(-c2nnc(N[C@@H]3CCCN(C)C3)n3cccc23)c(OC(F)(F)F)c1` [Compound 36, N-[(3R)-1-methylpiperidin-3-yl]-1-[4-methyl-2-(trifluoromethoxy)phenyl]pyrrolo[1,2-d][1,2,4]triazin-4-amine] belongs 1 to 10 nM.

With `COc1ccc(-c2nnc(N[C@@H]3CCCN(C)C3)n3cncc23)c(OCC(F)(F)F)c1` [Compound 304, 1-[4-methoxy-2-(2,2,2-trifluoroethoxy)phenyl]-N-[(3R)-1-methylpiperidin-3-yl]imidazo[1,5-d][1,2,4]triazin-4-amine], the IC50 was in the range of 1 to 10 nM.

On to `FC(F)(F)c1ccc(-c2nnc(Nc3cc[nH]n3)n3cncc23)c(C(F)(F)F)c1` [Compound 285, 1-[2,4-bis(trifluoromethyl)phenyl]-N-(1H-pyrazol-3-yl)imidazo[1,5-d][1,2,4]triazin-4-amine], for which the IC50 was 10 to 100 nM. With `COc1ccc(-c2nnc(NCc3cccc(O)c3)n3cncc23)c(OC(F)(F)F)c1` [Compound 233, 3-[{{1-[4-methoxy-2-(trifluoromethoxy)phenyl]imidazo[1,5-d][1,2,4]triazin-4-yl}amino)methyl]phenol] the figure was 1 to 10 nM; with `O[C@@H]1CCCC[C@H]1Nc1nnc(-c2ccc(Br)cc2OC(F)F)c2cncn12` [Compound 306, (1R,2R)-2-({1-[4-bromo-2-(difluoromethoxy)phenyl]imidazo[1,5-d][1,2,4]triazin-4-yl}amino)cyclohexan-1-ol], 1 to 10 nM; with `C[C@]1(O)C[C@@H](Nc2nnc(-c3ccc(OC(F)F)cc3OC(F)(F)F)c3cncn23)C1` [Compound 244, (1s,3s)-3-({1-[4-(difluoromethoxy)-2-(trifluoromethoxy)phenyl]imidazo[1,5-d][1,2,4]triazin-4-yl}amino)-1-methylcyclobutan-1-ol], below 1 nM. With `COc1ccc(-c2nnc(N[C@@H]3CCOC[C@H]3O)n3cccc23)c(OC(F)F)c1` [Compound 167, (3S,4R)-4-({1-[2-(difluoromethoxy)-4-methoxyphenyl]pyrrolo[1,2-d][1,2,4]triazin-4-yl}amino)oxan-3-ol] the figure was 10 to 100 nM. In the case of `COc1ccc(-c2nnc(NCCO)n3cccc23)c(OC(F)(F)F)c1` [Compound 64, 2-({1-[4-methoxy-2-(trifluoromethoxy)phenyl]pyrrolo[1,2-d][1,2,4]triazin-4-yl}amino)ethan-1-ol], the IC50 lay in the range of 10 to 100 nM. Take `OCCN1CCC[C@@H](Nc2nnc(-c3ccc(OC(F)F)cc3OC(F)(F)F)c3cncn23)C1` [Compound 258, 2-[(3R)-3-({1-[4-(difluoromethoxy)-2-(trifluoromethoxy)phenyl]imidazo[1,5-d][1,2,4]triazin-4-yl}amino)piperidin-1-yl]ethan-1-ol]: the IC50 fell in the range of 1 to 10 nM.

As for `COc1ccc(-c2nnc(N[C@H]3C[C@@](C)(CO)C3)n3cncc23)c(OC(F)(F)F)c1` [Compound 342, [(1s,3s)-3-({1-[4-methoxy-2-(trifluoromethoxy)phenyl]imidazo[1,5-d][1,2,4]triazin-4-yl}amino)-1-methylcyclobutyl]methanol], the IC50 was 10 to 100 nM. Take `COc1ccc(-c2nnc(Nc3cc[nH]n3)n3cncc23)c(OC(F)F)c1` [Compound 227, 1-[2-(difluoromethoxy)-4-methoxyphenyl]-N-(1H-pyrazol-3-yl)imidazo[1,5-d][1,2,4]triazin-4-amine]: the IC50 is 10 to 100 nM.

As for `Cc1cc2c(-c3ccc(C(F)(F)F)cc3CC(F)(F)F)nnc(N[C@@H]3CCCC[C@H]3O)n2n1` [Compound 389, (1R,2R)-2-({2-methyl-4-[2-(2,2,2-trifluoroethyl)-4-(trifluoromethyl)phenyl]pyrazolo[1,5-d][1,2,4]triazin-7-yl}amino)cyclohexan-1-ol], the IC50 was 1 to 10 nM. As to `COc1ccc(-c2nnc(NCC(C)(C)O)n3cccc23)c(OC(F)(F)F)c1` [Compound 66, 1-({1-[4-methoxy-2-(trifluoromethoxy)phenyl]pyrrolo[1,2-d][1,2,4]triazin-4-yl}amino)-2-methylpropan-2-ol], the IC50 was in the range of 10 to 100 nM. With `CN1C[C@@H](O)C[C@@H](Nc2nnc(-c3ccc(C(F)(F)F)cc3OC(F)F)c3cccn23)C1` [Compound 98, (3S,5R)-5-({1-[2-(difluoromethoxy)-4-(trifluoromethyl)phenyl]pyrrolo[1,2-d][1,2,4]triazin-4-yl}amino)-1-methylpiperidin-3-ol], the 50% inhibitory concentration (IC50) fell in the range of 1 to 10 nM. As for `CCN1CCC[C@@H](Nc2nnc(-c3ccc(OC)cc3OC(F)(F)F)c3cncn23)C1` [Compound 209, N-[(3R)-1-ethylpiperidin-3-yl]-1-[4-methoxy-2-(trifluoromethoxy)phenyl]imidazo[1,5-d][1,2,4]triazin-4-amine], the IC50 is below 1 nM.

On to `O[C@@H]1COCC[C@H]1Nc1nnc(-c2ccc(C(F)(F)F)cc2CC(F)(F)F)c2cncn12` [Compound 313, (3S,4R)-4-({1-[2-(2,2,2-trifluoroethyl)-4-(trifluoromethyl)phenyl]imidazo[1,5-d][1,2,4]triazin-4-yl}amino)oxan-3-ol], for which the half-maximal inhibitory concentration (IC50) is 1 to 10 nM.

`O[C@H]1CCC[C@@H](Nc2nnc(-c3ccc(C4CC4)cc3CC(F)(F)F)c3cncn23)C1` [Compound 353, (1S,3R)-3-({1-[4-cyclopropyl-2-(2,2,2-trifluoroethyl)phenyl]imidazo[1,5-d][1,2,4]triazin-4-yl}amino)cyclohexan-1-ol]: the IC50 was 1 to 10 nM.
